# How the values were obtained:
# hepatoma 22a = experiment: Increase of lifespan of mice with grafted hepatoma 22a; assay type: in vivo
# Procedure: (§1) As the criteria for the antitumor activity for leukosises and ascytic forms of tumors the increase of the lifespan of treated animals (ILS, %)
# (§2) T--average lifespan of treated animals;
# (§3) C--average lifespan of control animals;
# (§4) The experiments were carried out on line mice and their hybrides of the first generation. […]
# [1] = tested on: plasmacytoma of mice ADJ/PC6A; settings: cited from earlier work
# plasmacytoma MOPC-406 = experiment: Increase of lifespan of mice with plasmacytoma MOPC-406; assay type: in vivo; settings: for curing of animals with plasmocytoma MOPC-406: in words
# Procedure: as §1, §2, §3, §4
# tumors = settings: in words; cited from earlier work
# hemocytoblastosis La = experiment: Increase of lifespan of mice with hemocytoblastosis La; assay type: in vivo
# Procedure: as §1, §2, §3, §4
# lymphoid leukosis L-1210 [2] = experiment: Increase of lifespan of mice with lymphoid leukosis L-1210; assay type: in vivo; settings: 3 mg/kg i.p. in 0.9% NaCl, days of treatment 1-5
# [3] = tested on: mammal adenocarcinoma Ca 755; experiment: Tumor growth inhibition of mammal adenocarcinoma Ca 755; assay type: in vivo, mice
# Procedure: and for a solid tumor--tumor growth inhibition (TGI, %)
# O--volume of tumors in the group of treated animals;
# K--volume of tumors in the control group were employed.
# as §4
# lymphoid leukosis L-1210 [4] = experiment: Increase of lifespan of mice with lymphoid leukosis L-1210; assay type: in vivo
# Procedure: as §1, §2, §3
# The experiments were carried out on line mice and their hybrides of the first generation. […] The compounds were administered to animals intraperitoneally in a 5% solution of glucose once or daily over 5 days within the time limits adopted in experimental studies of corresponding tumors.
# [5] = Storage stability and hygroscopicity; assay type: physicochemical; settings: in words
# [6] = cited from earlier work
# [7] = cited from earlier work; remark: listed apart in the source
# [8] = tested on: graft strains of tumors and leukoses of mice; experiment: Antitumor activity, overall statement; assay type: in vivo; settings: in words
# Procedure: The antitumor activity of the compounds according to the present invention has been studied on a number of strains of grafted solid tumors and leukosises of mice: plasmacytoma MOPC-406, lymphoid leukosis L-1210, hemocytoblastosis La, hepatoma 22a, mammal adenocarcinoma Ca 755.
# The experiments were carried out on line mice and their hybrides of the first generation. […] The compounds were administered to animals intraperitoneally in a 5% solution of glucose once or daily over 5 days within the time limits adopted in experimental studies of corresponding tumors. […]
# [9] = 5 mg/kg i.p. in 0.9% NaCl, day 3
# [10] = 2 mg/kg i.p. in 0.9% NaCl, days of treatment 2-5
# [11] = 15-25 mg/kg i.p., days of treatment 2-6
# [12] = 30 mg/kg i.p., days of treatment 2-6
# [13] = 20-40 mg/kg i.p., days of treatment 2-6
# [14] = 20-25 mg/kg i.p., days of treatment 2-6
# [15] = 20 mg/kg i.p., days of treatment 7-11
molecule,measurement,setting,value
"N.N.[Cl][Pt][Cl] [DDP, cis-dichlorodiammineplatinum(II), reference compound]","Increase of lifespan, %, Hepatoma 22a",hepatoma 22a; [9],120%
same,"number of cured animals / animals employed, Hepatoma 22a",hepatoma 22a; [9],0/6
same,curing of animals with hepatoma 22a,hepatoma 22a; in words,no curing of animals
same,ID90 (dose inhibiting growth of tumors by 90%),"[1]; plasmacytoma ADJ/PC6A, mice",1.6 mg/kg
same,"Increase of lifespan, %, MOPC-406",plasmacytoma MOPC-406; [10],140%
same,"number of cured animals / animals employed, MOPC-406",plasmacytoma MOPC-406; [10],0/6
same,curing of animals with plasmocytoma MOPC-406,plasmacytoma MOPC-406,no curing of animals
same,antitumor activity,tumors,high antitumor activity
same,spectrum of action on diverse tumors,tumors,remarkably wide spectrum of action on diverse tumors
same,"Increase of lifespan, %, La","hemocytoblastosis La; 8 mg/kg i.p. in 0.9% NaCl, day 1",200%
same,"Increase of lifespan, %, L-1210",lymphoid leukosis L-1210 [2],116%
same,"Tumor growth inhibition, %, Ca-755","[3]; 8 mg/kg i.p. in 0.9% NaCl, day 2",95%
"N.NC1CC1.O=C([O-])CC(=O)[O-].[Pt+2] [Example 1, malonatoammine(cyclopropylamine)platinum(II)]","Increase of lifespan, %, Hepatoma 22a",hepatoma 22a; [11],85%
same,"number of cured animals / animals employed, Hepatoma 22a",hepatoma 22a; [11],0/6
same,"Increase of lifespan, %, MOPC-406","plasmacytoma MOPC-406; 60 mg/kg i.p., day 7",150%
same,"number of cured animals / animals employed, MOPC-406","plasmacytoma MOPC-406; 60 mg/kg i.p., day 7",1/6
same,"Increase of lifespan, %, MOPC-406",plasmacytoma MOPC-406; [11],268%
same,"number of cured animals / animals employed, MOPC-406",plasmacytoma MOPC-406; [11],2/6
same,"Increase of lifespan, %, MOPC-406","plasmacytoma MOPC-406; 60-70 mg/kg i.p., day 2",177%
same,"number of cured animals / animals employed, MOPC-406","plasmacytoma MOPC-406; 60-70 mg/kg i.p., day 2",1/6
same,curing of animals with plasmocytoma MOPC-406,plasmacytoma MOPC-406,ensure curing of a certain number of animals (up to 100%)
same,"Increase of lifespan, %, La",hemocytoblastosis La; [11],29%
same,"Increase of lifespan, %, L-1210",lymphoid leukosis L-1210 [4]; [11],39%
same,"Increase of lifespan, %, L-1210","lymphoid leukosis L-1210 [4]; 60-70 mg/kg i.p., day 2",48%
same,"Tumor growth inhibition, %, Ca-755",[3]; [11],89%
"N.NC1CCC1.O=C1[O][Pt][O]C(=O)C1O [Example 3, (hydroxymalonato)ammine(cyclobutylamine)platinum(II)]","Increase of lifespan, %, L-1210","lymphoid leukosis L-1210 [4]; 25 mg/kg i.p., days of treatment 2-6",100%
same,"Increase of lifespan, %, L-1210","lymphoid leukosis L-1210 [4]; 60 mg/kg i.p., day 2",71%
same,"Tumor growth inhibition, %, Ca-755","[3]; 20 mg/kg i.p., days of treatment 2-6",70%
"[NH2][Pt]1([NH]C2CCCC2)[O]C(=O)CC(=O)[O]1 [Example 6, malonatoammine(cyclopentylamine)platinum(II)]",hygroscopicity,[5],very hygroscopic
same,"Increase of lifespan, %, Hepatoma 22a",hepatoma 22a; [11],140%
same,"number of cured animals / animals employed, Hepatoma 22a",hepatoma 22a; [11],2/6
same,curing of animals with hepatoma 22a,hepatoma 22a; in words,cure a portion of animals
same,"Increase of lifespan, %, MOPC-406","plasmacytoma MOPC-406; 50 mg/kg i.p., day 7",329%
same,"number of cured animals / animals employed, MOPC-406","plasmacytoma MOPC-406; 50 mg/kg i.p., day 7",3/6
same,"Increase of lifespan, %, MOPC-406",plasmacytoma MOPC-406; [11],286%
same,"number of cured animals / animals employed, MOPC-406",plasmacytoma MOPC-406; [11],3/6
same,"Increase of lifespan, %, MOPC-406","plasmacytoma MOPC-406; 40-60 mg/kg i.p., day 2",300%
same,"number of cured animals / animals employed, MOPC-406","plasmacytoma MOPC-406; 40-60 mg/kg i.p., day 2",5/6
same,curing of animals with plasmocytoma MOPC-406,plasmacytoma MOPC-406,ensure curing of a certain number of animals (up to 100%)
same,"Increase of lifespan, %, La",hemocytoblastosis La; [11],21%
same,"Increase of lifespan, %, L-1210",lymphoid leukosis L-1210 [4]; [11],36%
same,"Increase of lifespan, %, L-1210","lymphoid leukosis L-1210 [4]; 40-60 mg/kg i.p., day 2",45%
same,"Tumor growth inhibition, %, Ca-755",[3]; [11],76%
"[NH2][Pt]1([NH]C2CCCCC2)[O]C(=O)CCC(=O)[O]1 [Example 15, succinatoammine(cyclohexylamine)platinum(II)]","Increase of lifespan, %, L-1210",lymphoid leukosis L-1210 [4]; [12],108%
same,"Increase of lifespan, %, L-1210","lymphoid leukosis L-1210 [4]; 150 mg/kg i.p., day 2",120%
same,"Tumor growth inhibition, %, Ca-755",[3]; [12],72%
"N.NCC1CCCO1.O.O=C1C[C@H](O)C(=O)[O][Pt][O]1 [Example 21, S(-)-malatoammine(tetrahydrofurfurylamine)platinum(II)]","Increase of lifespan, %, Hepatoma 22a",hepatoma 22a; [13],340%
same,"number of cured animals / animals employed, Hepatoma 22a",hepatoma 22a; [13],2/6
same,curing of animals with hepatoma 22a,hepatoma 22a; in words,cure a portion of animals
same,"Increase of lifespan, %, MOPC-406",plasmacytoma MOPC-406; [13],280%
same,"number of cured animals / animals employed, MOPC-406",plasmacytoma MOPC-406; [13],3/6
same,curing of animals with plasmocytoma MOPC-406,plasmacytoma MOPC-406,ensure curing of a certain number of animals (up to 100%)
same,"Increase of lifespan, %, L-1210",lymphoid leukosis L-1210 [4]; [13],120%
same,"Tumor growth inhibition, %, Ca-755",[3]; [13],95%
[Cl][Pt-2]([Cl])([NH2+]C1CCCC1)[NH2+]C1CCCC1 [cis-[PtCl2 (cyclo-C5 H9 NH2)2]],solubility in water,"[6]; prior art compound, in words",substantially insoluble in water
same,ID90 (dose inhibiting growth of tumors by 90%),"[1]; plasmacytoma ADJ/PC6A, mice",2.4 mg/kg
same,therapeutical index TI=LD50/ID90,"[1]; plasmacytoma ADJ/PC6A, mice",200
same,therapeutic response or side effect,[7]; fine suspensions in sesame oil or aqueous solloids stabilized by polyvinylpyrrolidone,no therapeutic response or a side effect
same,local irritation,[7]; in vivo,local irritation upon administration of an oily suspension
same,retention at the spot of the injection,[7]; in vivo,substantially remains at the spot of the injection
N.NC1CCCC1.[Cl][Pt][Cl] [cis-[PtCl2 NH3 (cyclo-C5 H9 NH2)]],solubility in 0.9% NaCl,[6]; 0.9% NaCl,about 1 mg/ml
same,toxicity compared with DDP,"[1]; in words, versus DDP",slightly more toxic than DDP
same,LD50,"[1]; mice, plasmacytoma ADJ/PC6A tests",11.0 mg/kg
same,ID90 (dose inhibiting growth of tumors by 90%),"[1]; plasmacytoma ADJ/PC6A, mice",0.5 mg/kg
same,"90% tumor growth inhibiting dose, times less than that of DDP","[1]; plasmacytoma ADJ/PC6A, versus DDP",3 times
same,"90% tumor growth inhibiting dose, times less than that of cis-[PtCl2 (cyclo-C5 H9 NH2)2 ]","[1]; plasmacytoma ADJ/PC6A, versus cis-[PtCl2 (cyclo-C5 H9 NH2)2 ]",~5 times
same,advantage over parent compounds with identical ligands,tumors,absence of advantages of this mixed complex as compared to the parent compounds with identical ligands
NC1CCCCC1.NC1CCCCC1.[Cl][Pt][Cl] [complex with cyclohexylamine],therapeutical index TI=LD50/ID90,"[1]; plasmacytoma ADJ/PC6A, mice",above 267
RS-malatoammine(cyclopentylamine)platinum(II) [Example 5],"Increase of lifespan, %, Hepatoma 22a",hepatoma 22a; [14],322%
same,"number of cured animals / animals employed, Hepatoma 22a",hepatoma 22a; [14],2/6
same,curing of animals with hepatoma 22a,hepatoma 22a; in words,cure a portion of animals
same,"Increase of lifespan, %, MOPC-406",plasmacytoma MOPC-406; [14],350%
same,"number of cured animals / animals employed, MOPC-406",plasmacytoma MOPC-406; [14],4/6
same,curing of animals with plasmocytoma MOPC-406,plasmacytoma MOPC-406,ensure curing of a certain number of animals (up to 100%)
same,"Increase of lifespan, %, L-1210",lymphoid leukosis L-1210 [4]; [14],156%
same,"Tumor growth inhibition, %, Ca-755",[3]; [14],95%
S(-)malatoammine(cyclopentylamine)platinum(II) [Example 4],hygroscopicity,[5],hydroscopic
same,antitumor activity,[8],highest antitumor activity among the compounds according to the present invention
same,"Increase of lifespan, %, Hepatoma 22a",hepatoma 22a; [11],225%
same,"number of cured animals / animals employed, Hepatoma 22a",hepatoma 22a; [11],4/6
same,curing of animals with hepatoma 22a,hepatoma 22a; in words,cure a portion of animals
same,curing of animals with hepatoma 22a,hepatoma 22a; optimal doses,up to 66%
same,"Increase of lifespan, %, MOPC-406",plasmacytoma MOPC-406; [15],356%
same,"number of cured animals / animals employed, MOPC-406",plasmacytoma MOPC-406; [15],3/6
same,"Increase of lifespan, %, MOPC-406",plasmacytoma MOPC-406; [11],327%
same,"number of cured animals / animals employed, MOPC-406",plasmacytoma MOPC-406; [11],6/6
same,"Increase of lifespan, %, MOPC-406","plasmacytoma MOPC-406; 60-80 mg/kg i.p., day 2",310%
same,"number of cured animals / animals employed, MOPC-406","plasmacytoma MOPC-406; 60-80 mg/kg i.p., day 2",5/6
same,curing of animals with plasmocytoma MOPC-406,plasmacytoma MOPC-406,ensure curing of a certain number of animals (up to 100%)
same,curing of animals with plasmacytoma MOPC-406,plasmacytoma MOPC-406; optimal doses,up to 100%
same,"Increase of lifespan, %, La",hemocytoblastosis La; [11],113%
same,lifespan of animals with hemocytoblastosis La,hemocytoblastosis La; in words,considerably extends the lifespan
same,extension of life span of animals with hemocytoblastosis La,hemocytoblastosis La; optimal doses,113%
same,"Increase of lifespan, %, L-1210",lymphoid leukosis L-1210 [4]; [11],195%
same,"Increase of lifespan, %, L-1210","lymphoid leukosis L-1210 [4]; 60-80 mg/kg i.p., day 2",101%
same,extension of life span of animals with leukemia L-1210,lymphoid leukosis L-1210 [4]; optimal doses,195%
same,"Tumor growth inhibition, %, Ca-755",[3]; [11],96%
